How the values were obtained:
[1] = system: barnyardgrass; assay: Test A pre-/postemergence herbicide test; type: in vivo, Echinochloa crus-galli
Outline: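 Both application timings used compounds in a non-phytotoxic solvent plus surfactant. Pre-emergence: soil sprayed directly after seeding into loam/sand. Post-emergence: foliage of 2–10 cm seedlings (1–2 leaves) sprayed. Injury rated ~10 days later, 0–100.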

[2] = system: galium; assay: Test A postemergence herbicide test; type: in vivo, Galium aparine
Outline: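 Visual injury rating, 0 (no effect) to 100 (complete control), versus untreated controls ~10 days after treatment. Postemergence spray applied at one- to two-leaf stage, plants 2–10 cm tall, potted in loam soil/sand. Greenhouse-held.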

[3] = system: barnyardgrass; assay: Test B flooded paddy test; type: in vivo, Echinochloa crus-galli; settings: 500 g ai/ha, Flood; scale of 0 to 100 where 0 is no effect and 100 is complete control
Outline: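 First, plants reach the 2-leaf stage; next, pots are flooded to 3 cm and compound is delivered into the water; finally, after 13 to 15 greenhouse days at constant depth, injury is graded visually from 0 to 100 against controls.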

[4] = system: foxtail, giant; assay: Test C pre-/postemergence herbicide test; type: in vivo, Setaria faberii
Outline: (§1)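 Herbicidal effect was judged by eye 13 to 15 days after treatment in the greenhouse, using a 0–100 scale against controls. Chemicals in a non-phytotoxic solvent with surfactant were sprayed onto planted loam/sand soil or onto plants 2 to 18 cm tall in a peat-based growing medium.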

[5] = system: soybean; assay: Test C pre-/postemergence herbicide test; type: in vivo, Glycine max
Outline: as §1

[6] = system: oilseed rape; assay: Test C pre-/postemergence herbicide test; type: in vivo, Brassica napus
Outline: as §1

[7] = system: waterhemp; assay: Test C pre-/postemergence herbicide test; type: in vivo, Amaranthus rudis
Outline: as §1

[8] = 125 g ai/ha, visual rating, 0 to 100 scale, 0 no effect, 100 complete control, approximately 10 days, preemergence
[9] = Postemergence, 125 g ai/ha, 0 to 100 scale, 0 is no effect, 100 is complete control
[10] = preemergence, 500 g ai/ha, 0 to 100 scale, 0 is no effect and 100 is complete control
[11] = 125 g ai/ha, 0 to 100 scale, 0 is no effect, 100 is complete control
[12] = Postemergence, 31 g ai/ha, scale 0 to 100 (0 no effect, 100 complete control)
[13] = Postemergence, 62 g ai/ha, scale 0 (no effect) to 100 (complete control)
[14] = Postemergence, 125 g ai/ha, scale 0 to 100 (0 no effect, 100 complete control)
[15] = Postemergence, 250 g ai/ha, scale 0 to 100 (0 no effect, 100 complete control)
[16] = Preemergence, 31 g ai/ha, scale 0 to 100, 0 is no effect and 100 is complete control
[17] = Preemergence, 62 g ai/ha, scale 0 to 100 (0 no effect, 100 complete control)
[18] = Preemergence, 125 g ai/ha, scale 0 to 100 (0 no effect, 100 complete control)

O=C1NCC(c2cccc(OC(F)F)c2)C1C(=O)Nc1cccc(F)c1F (stereo not shown) [Compound 224]
Plant response rating, Barnyardgrass [1, 8]: 90 | Plant response rating, Barnyardgrass [1, 9]: 80 | Barnyardgrass plant response rating (0 to 100 scale, 0 is no effect, 100 is complete control) ([1]; Postemergence, 500 g ai/ha): 90 | Plant response rating, Barnyardgrass [1, 10]: 90 | Plant response rating, Galium [2, 11]: 70 | Galium plant response rating (0 to 100 scale, 0 is no effect, 100 is complete control) ([2]; 500 g ai/ha): 70 | Plant response rating, Barnyardgrass [3]: 70 | Plant response rating, Foxtail, Giant [4, 12]: 0 | Plant response rating, Foxtail, Giant [4, 13]: 0 | Plant response rating, Foxtail, Giant [4, 14]: 60 | Plant response rating, Foxtail, Giant [4, 15]: 35 | Foxtail, Giant plant response rating [4, 16]: 80 | Foxtail, Giant plant response rating [4, 17]: 90 | Plant response rating, Foxtail, Giant [4, 18]: 95 | Plant response rating (scale of 0 to 100), Foxtail, Giant ([4]; Preemergence, 250 g ai/ha): 98 | Plant response rating, Soybean [5, 12]: 0 | Plant response rating, Soybean [5, 13]: 10 | Plant response rating, Soybean [5, 14]: 5 | Plant response rating, Soybean [5, 15]: 5 | Soybean plant response rating [5, 16]: 0 | Soybean plant response rating [5, 17]: 100 | Plant response rating, Soybean [5, 18]: 0 | Plant response rating (scale of 0 to 100), Soybean ([5]; Preemergence, 250 g ai/ha): 5 | Plant response rating, Oilseed Rape [6, 12]: 0 | Plant response rating, Oilseed Rape [6, 13]: 15 | Plant response rating, Oilseed Rape [6, 14]: 20 | Plant response rating, Oilseed Rape [6, 15]: 5 | Oilseed Rape plant response rating [6, 16]: 0 | Oilseed Rape plant response rating [6, 17]: 5 | Plant response rating, Oilseed Rape [6, 18]: 70 | Plant response rating (scale of 0 to 100), Oilseed Rape ([6]; Preemergence, 250 g ai/ha): 85 | Plant response rating, Waterhemp [7, 12]: 25 | Plant response rating, Waterhemp [7, 13]: 35 | Plant response rating, Waterhemp [7, 14]: 30 | Plant response rating, Waterhemp [7, 15]: 30 | Waterhemp plant response rating [7, 16]: 75 | Waterhemp plant response rating [7, 17]: 5 | Plant response rating, Waterhemp [7, 18]: 70 | Plant response rating (scale of 0 to 100), Waterhemp ([7]; Preemergence, 250 g ai/ha): 80

O=C1NCC(c2ccc(C(F)(F)F)cc2)C1C(=O)Nc1ccccc1F (stereo not shown) [Compound 231]
Plant response rating, Barnyardgrass [1, 8]: 90 | Plant response rating, Barnyardgrass [1, 9]: 80 | Barnyardgrass plant response rating (0 to 100 scale, 0 is no effect, 100 is complete control) ([1]; Postemergence, 500 g ai/ha): 90 | Plant response rating, Barnyardgrass [1, 10]: 90 | Plant response rating, Galium [2, 11]: 40 | Galium plant response rating (0 to 100 scale, 0 is no effect, 100 is complete control) ([2]; 500 g ai/ha): 50 | Plant response rating, Barnyardgrass [3]: 0 | Foxtail, Giant plant response rating [4, 16]: 90 | Foxtail, Giant plant response rating [4, 17]: 90 | Plant response rating, Foxtail, Giant [4, 18]: 98 | Plant response rating (scale of 0 to 100), Foxtail, Giant ([4]; Preemergence, 250 g ai/ha): 95 | Soybean plant response rating [5, 16]: 0 | Soybean plant response rating [5, 17]: 0 | Plant response rating, Soybean [5, 18]: 0 | Plant response rating (scale of 0 to 100), Soybean ([5]; Preemergence, 250 g ai/ha): 5 | Oilseed Rape plant response rating [6, 16]: 0 | Oilseed Rape plant response rating [6, 17]: 55 | Plant response rating, Oilseed Rape [6, 18]: 85 | Plant response rating (scale of 0 to 100), Oilseed Rape ([6]; Preemergence, 250 g ai/ha): 90 | Waterhemp plant response rating [7, 16]: 75 | Waterhemp plant response rating [7, 17]: 85 | Plant response rating, Waterhemp [7, 18]: 100 | Plant response rating (scale of 0 to 100), Waterhemp ([7]; Preemergence, 250 g ai/ha): 95

CN1CC(c2ccc(F)c(F)c2)C(C(=O)Nc2cccc(F)c2F)C1=O (stereo not shown) [Compound 303]
Plant response rating, Barnyardgrass ([1]; Postemergence, 125 g ai/ha, visual rating on 0 to 100 scale (0 no effect, 100 complete control), approx. 10 days): 80 | Plant response rating, Barnyardgrass ([1]; Postemergence, 500 g ai/ha, 0 to 100 scale (0 no effect, 100 complete control)): 90 | Plant response rating, Barnyardgrass ([1]; Preemergence, 125 g ai/ha, 0 to 100 scale where 0 is no effect and 100 is complete control): 90 | Barnyardgrass plant response rating ([1]; Preemergence, 500 g ai/ha, visual rating on 0 to 100 scale (0 no effect, 100 complete control)): 90 | Plant response rating, Galium ([2]; 125 g ai/ha, visual rating on 0 to 100 scale (0 no effect, 100 complete control), approx. 10 days): 60 | Plant response rating, Galium ([2]; 500 g ai/ha, 0 to 100 scale (0 no effect, 100 complete control)): 70 | Plant response rating, Barnyardgrass [3]: 80 | Plant response rating, Foxtail, Giant [4, 13]: 80 | Plant response rating, Foxtail, Giant [4, 14]: 85 | Plant response rating, Foxtail, Giant [4, 15]: 90 | Foxtail, Giant plant response rating [4, 16]: 90 | Foxtail, Giant plant response rating [4, 17]: 95 | Plant response rating, Foxtail, Giant [4, 18]: 98 | Plant response rating (scale of 0 to 100), Foxtail, Giant ([4]; Preemergence, 250 g ai/ha): 100 | Plant response rating, Soybean [5, 12]: 0 | Plant response rating, Soybean [5, 13]: 0 | Plant response rating, Soybean [5, 14]: 0 | Plant response rating, Soybean [5, 15]: 0 | Soybean plant response rating [5, 16]: 0 | Soybean plant response rating [5, 17]: 0 | Plant response rating, Soybean [5, 18]: 0 | Plant response rating (scale of 0 to 100), Soybean ([5]; Preemergence, 250 g ai/ha): 20 | Plant response rating, Oilseed Rape [6, 12]: 0 | Plant response rating, Oilseed Rape [6, 13]: 0 | Plant response rating, Oilseed Rape [6, 14]: 0 | Plant response rating, Oilseed Rape [6, 15]: 30 | Oilseed Rape plant response rating [6, 16]: 0 | Oilseed Rape plant response rating [6, 17]: 35 | Plant response rating, Oilseed Rape [6, 18]: 80 | Plant response rating (scale of 0 to 100), Oilseed Rape ([6]; Preemergence, 250 g ai/ha): 85 | Plant response rating, Waterhemp [7, 12]: 0 | Plant response rating, Waterhemp [7, 13]: 35 | Plant response rating, Waterhemp [7, 14]: 0 | Plant response rating, Waterhemp [7, 15]: 25 | Waterhemp plant response rating [7, 16]: 40 | Waterhemp plant response rating [7, 17]: 65 | Plant response rating, Waterhemp [7, 18]: 65 | Plant response rating (scale of 0 to 100), Waterhemp ([7]; Preemergence, 250 g ai/ha): 75

Reference: patent US10294202B2, “Pyrrolidinones as herbicides” (FMC Corporation, priority 2013, dated 2019)
